Data from PubChem BioAssay (NCI).
“And” between values parts separate entries of the source, which are not always exact repeats. Equal entries are not always repeated.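 Growth conditions: 96-well plates. Treatment: test compound, 48 hours, 5 concentrations. Analysis: linear interpolation between bracketing concentrations; unreached endpoints set to highest concentration. Abbreviation: GI50, concentration required for 50% inhibition of growth. Definition used: TGI = concentration required for complete inhibition of growth.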

How the values were obtained:
Assay in all cases: growth of human tumour cells (NCI), 48 h
SNB-75 CNS = tested on: SNB-75 CNS
CCRF-CEM leukemia = tested on: CCRF-CEM leukemia
UACC-257 melanoma = tested on: UACC-257 melanoma
HL-60(TB) leukemia = tested on: HL-60(TB) leukemia
OVCAR-5 ovarian = tested on: OVCAR-5 ovarian
K-562 leukemia = tested on: K-562 leukemia
HOP-62 NSCLC = tested on: HOP-62 NSCLC
LOX IMVI melanoma = tested on: LOX IMVI melanoma
CAKI-1 renal = tested on: CAKI-1 renal
RXF 393 renal = tested on: RXF 393 renal

| SMILES | GI50 (SNB-75 CNS) [µM] | TGI (SNB-75 CNS) [µM] | GI50 (CCRF-CEM leukemia) | TGI (CCRF-CEM leukemia) [µM] | GI50 (UACC-257 melanoma) [µM] | TGI (UACC-257 melanoma) [µM] | GI50 (HL-60(TB) leukemia) [µM] | TGI (HL-60(TB) leukemia) [µM] | GI50 (OVCAR-5 ovarian) | TGI (OVCAR-5 ovarian) [µM] | GI50 (K-562 leukemia) [µM] | TGI (K-562 leukemia) [µM] | GI50 (HOP-62 NSCLC) [µM] | TGI (HOP-62 NSCLC) [µM] | GI50 (LOX IMVI melanoma) | TGI (LOX IMVI melanoma) [µM] | GI50 (CAKI-1 renal) [µM] | TGI (CAKI-1 renal) [µM] | GI50 (RXF 393 renal) [µM] | TGI (RXF 393 renal) [µM] |
| --- | --- | --- | --- | --- | --- | --- | --- | --- | --- | --- | --- | --- | --- | --- | --- | --- | --- | --- | --- | --- |
| Cc1nc2cc(Nc3nc(Nc4ccc(F)cc4)nc(N4CCN(C)CC4)n3)ccc2n1Cc1ccccc1 | 1.4 | 2.79 | 1.93 µM | 5.47 | 1.8 | 3.3 | 1.34 | 3.36 | 2 µM | 4.7 | 1.34 | 5.29 | 1.85 | 3.65 | 1.79 µM | 3.41 | 2.19 | 5.4 |  |  |
| CNC(=O)OC1C(O[C@H]2C[C@H]3[C@@H]4CC=C5C[C@@H](O)CC[C@]5(C)[C@H]4CC[C@]3(C)[C@H]2[C@H](C)C(=O)CCC(C)C)OCC(O)C1OC1OCC(O)C(O)C1OC(=O)c1ccc(OC)cc1 (some centres undefined) | 0.00628 | 4.97 | 0.00566 µM | 0.0373 | 0.0237 | 0.105 |  |  | 0.235 µM | 5.01 | 0.0139 | 0.554 | 0.0225 | 2.85 | 0.0106 µM | 0.0688 | 0.0676 | 1.04 | < 0.00275 | 0.0111 |
| Cc1ccc(C2C3=C(N=c4s/c(=C/c5ccc(Br)cc5)c(=O)n42)c2ccc4ccccc4c2OCC3)cc1 (centres undefined) | > 100 | > 100 | > 100 µM | > 100 | 35.7 | > 100 | > 100 | > 100 | > 100 µM | > 100 | > 100 | > 100 | > 100 | > 100 | > 100 µM | > 100 |  |  | > 100 | > 100 |
| CCc1c(O)c2c(c(O)c1C(C)=O)C(=O)c1c(cc(O)c(C(=O)O)c1C(=O)O)C2=O |  | > 100 |  | > 100 |  | > 100 |  |  |  | > 100 |  | > 100 |  | > 100 |  | > 100 |  | > 100 |  | > 100 |
| C=CCC(N[C@H](CO)c1ccccc1)c1cn(S(=O)(=O)c2ccc(C)cc2)c2ccccc12 (some centres undefined) | 66.2 | > 100 | 22.6 µM | 76.7 | 10.7 | 26.7 |  |  | > 100 µM | > 100 | 2.72 |  | 16.8 | 33.5 | 13.7 µM | 27 | 11.5 | 37.3 |  |  |
| CCCCN(CCCC)C(=O)C(=O)C(C)C(=O)CC (centres undefined) |  | > 100 |  |  |  | > 100 |  | > 100 |  | > 100 |  | > 100 |  | > 100 |  | > 100 |  | > 100 |  |  |
| Cc1cc(C)cc(Nc2ccc([N+](=O)[O-])c(NCCN3CCOCC3)n2)c1 |  |  | 0.00392 µM and 0.0331 µM | > 100 | > 100 | > 100 | 0.00261 | 0.00926 | 0.0576 µM and 0.0361 µM | > 100 |  | > 100 |  | 44.9 | 0.0159 µM and 0.0114 µM | > 100 | 0.00163 | > 100 | 0.0208 | 48.8 |
| O=C(O)c1cc(Cc2ccc(O)c(C(=O)O)c2)ccc1O (tested in a mixture with another compound) | 3.32 | 22.4 | 2.25 µM | > 100 | 3.34 | 7.77 |  |  | 11.5 µM | 27.1 | 2.38 | > 100 | 10.9 | 26.6 | 2.99 µM | 15.7 | 1.36 | 3.69 | 0.25 | 1.37 |
| Cc1[nH]nc2c1C(=O)C=C(N(CCO)c1ccccc1)C2=O |  | > 100 |  | > 100 |  | > 100 |  | > 100 |  |  |  | > 100 |  |  |  | > 100 |  | > 100 |  | > 100 |
| CCCCCCC#CC#Cc1cccc(=O)o1 | 4.34 | 37.3 | 0.265 µM | > 19.8 | 2.21 | 7.87 |  |  | 2.25 µM | 4.95 | 7.33 | > 100 | 2.65 | 8.48 | 0.122 µM | 0.43 | 3.4 | 9.2 | 1.72 | 4.65 |
| Oc1c(I)cc(-c2nc3ccccc3s2)cc1CN(Cc1ccccn1)Cc1ccccn1 |  |  | 0.35 µM | > 100 | 0.87 | > 100 | 0.323 | > 100 | 0.928 µM | 53.2 | 0.385 | > 100 | 0.332 | 68.3 | 0.305 µM | 1.38 | 0.413 | 2.47 | 1.08 | 5.61 |
| COc1ccc(C(=O)C(C(=O)C(=O)Nc2nccs2)c2ccc(OC)cc2)cc1 (centres undefined) |  | > 100 |  | > 100 |  | > 100 |  |  |  | > 100 |  | > 100 |  |  |  | > 100 |  | > 100 |  | > 100 |
| COc1cc(C2=NN(c3ccc(S(N)(=O)=O)cc3)C(c3ccc(Cl)cc3)C2)cc(OC)c1OC (centres undefined) | 2.22 | > 100 | 4.81 µM | > 100 | 9.5 | > 100 | 3.94 | > 100 | 3.69 µM | > 100 | 5.67 | > 100 | 5.8 | > 100 | 5.15 µM | > 100 |  |  | 3.05 | > 100 |
| Nc1ccc2ccc(NS(=O)(=O)N3CCCCC3)cc2c1 | 0.446 | > 100 | 0.46 µM | > 100 | 12.9 | > 100 | 0.327 | > 100 |  | > 100 | 0.354 | > 100 |  | > 100 | 1.03 µM | > 100 | 0.584 | > 100 |  |  |
| O=[N+]([O-])[O-].O=[N+]([O-])[O-].[Au].[Au].c1ccc([P-]c2ccccc2)cc1.c1ccc([P-]c2ccccc2)cc1 | 51.4 | > 100 | 18.8 µM | > 100 | 26.3 | 62.7 | 12 | > 100 | > 100 µM | > 100 | 23.6 | > 100 | > 100 | > 100 | 35.3 µM | > 100 | 26.9 | 52.7 |  |  |
